US20250003953A1, “Methods and Model Systems for Assessing Therapeutic Properties of Candidate Agents and Related Computer Readable Media and Systems” (The Regents of the University of California, priority 2021, published 2025)

Tests used:
KRAS.G12V cell line H441 = test: Lipid peroxidation by KRAS inhibitors in non-KRAS.G12C line; type: cell-based, human
Method: (§1) FIG. 7B plots gene expression of anti-ferroptotic genes for each cell line in response to increasing ARS1620 dosage.
(§2) Using a lipid peroxidation live cell probe, lipid peroxidation—one of the hallmark phenotypes of ferroptosis—was measured in response to ARS-1620 treatment.

[1] = test system: KRAS.G12C cell lines in a cell pool; test: GENEVA pool gene set expression after drug, in vivo; design: species or system mouse; conditions: post-drug treatment
Method: 2 mL of Matrigel Basement Membrane reagent was added to the GENEVA pool prepared by growth rate balancing for a final concentration of 20M/mL. One hundred microliters of this solution was injected into NSG mice in a flank xenograft injection. Twenty-four hours later, mice harboring GENEVA tumors were drugged with the drug compound in a vehicle solution of 5% DMSO, 95% Labrasol. Mice were dosed by oral gavage four fourteen days with five days on, two days off. On the fourteenth day, mice were sacrificed, tumors harvested by homogenization with surgical shears and resuspended in 5 mg/mL Liberase™ Cell Dissociation Reagent in 1:1 DMEM: F12 cell media, DNAse I (10 U/uL). Tumors were incubated in a 37° C. incubator with shaking at 600 RPMs for 45 minutes for enzymatic dissociation and then spun down at 800 g for 5 minutes at 4° C. Dissociated tumors were resuspended in 100 uL 1×PBS.
The GENEVA datasets were compared where GENEVA pools were drugged with the KRAS.G12C inhibitor ARS1620, conducted both in vitro and in vivo. Specifically, the in vitro data were compared against the in vivo data to look for differences and similarities attributable to the context of the model systems used. […]
For in vivo and in vitro datasets, we combined the median z score results determined in Example 8 and t-test results, respectively, were combined on a paired geneset by geneset basis. […]

[2] = test system: patients derived xenografts (PDX) grown as pooled organoids; test: Cell cycle inhibition rates from GENEVA in pooled PDX; type: cell-based, human; conditions: PDX with known KRAS.G12C mutations; in vivo and ex vivo systems
From the text: Using growth-rate balanced heterogeneous cell pools adjusted for long time-course drug treatment, pools were created from four human patient-derived xenograft (PDX) models and implanted as a pooled tumor in a flank xenograft mouse model. The pooled tumors were drugged in mice by oral dosing by gavage for fourteen days with the molecule ARS-1620. After the treatment interval, tumors were harvested from mice, and single-cell RNA sequencing, genetic demultiplexing (as illustrated in Example 2), and sample hashing using barcoded antibodies was performed. Sufficient numbers of cells were observed from each PDX genetic background and drug treatment condition (FIG. 2C,D) for inference of drug phenotype and drug changes to the transcriptome. Pools from four PDX models were created for implantation for a fourteen day drug treatment in a 3D Organoid model system. […]
Cell Cycle was calculated by regressing whole transcriptome readouts and weighting according to specified genes of interest related to different cell cycle states. Cells were assigned into G1, S, and G2/M. The cell cycle ratio was then calculated as fraction of cells per population: […]
yielded a function where the slope was determined as the cell cycle inhibition rate, reflecting an alternative way to measure phenotype derived solely from transcriptome drug perturbation data over a long time course.

lipid peroxidation = test: Lipid peroxidation live cell probe dose curve and survival kinetics; type: cell-based
From the text: FIG. 7B plots gene expression of anti-ferroptotic genes for each cell line in response to increasing ARS1620 dosage. […] Lipid peroxidation and survival kinetics cross over around IC50 in all compounds indicating ARS1620 performs as a ferroptosis inducing agent.
Among this group of genes were FTH1 and FTL, the two components of the Ferritin Complex, which is responsible for sequestration of labile free iron. Using a lipid peroxidation live cell probe, lipid peroxidation—one of the hallmark phenotypes of ferroptosis—was measured in response to ARS-1620 treatment.

[3] = test system: KRAS.G12C cell line H2030; test: Lipid peroxidation by KRAS inhibitors in KRAS.G12C line; type: cell-based, human
Method: as §1, §2

[4] = test system: tumors from KRAS.G12C, EML4-ALK, and TH21 lung cancer patients; test: GENEVA pools of PDX models, relative survival by genotype; type: in vivo, human; conditions: PDX GENEVA pool
From the text: Higher confidence metrics are noted in the dotted line, or Noise Corrected Algorithm results.
GENEVA pools of PDX models were created for a long term drug treatment assay. Tumors were implanted in vivo and in organoids, and tumors from KRAS.G12C, EML4-ALK, and TH21 lung cancer patients were drugged in GENEVA pools. Significant drug sensitivity was found in EML4-ALK patient greater than sensitivity of KRAS.G12C mutant tumors indicating EML4-ALK patient tumors would respond to a KRAS.G12C inhibitor (FIG. 9B).

C=CC(=O)N1CCN(c2ncnc3c(F)c(-c4c(O)cccc4F)c(Cl)cc23)CC1 [ARS1620]
lipid peroxidation (KRAS.G12V cell line H441): this effect was significantly muted | endothelial-mesenchymal transition hallmark gene expression signature [1]: increased in vivo | drug sensitivity by estimation of cell cycle inhibition rates [2]: shown to be sensitive to the compound (patients 877 and 233) | lipid peroxidation dose response (lipid peroxidation; 48 h, fluorescent lipid peroxidation sensor): induced lipid peroxidation in a dose dependent fashion | cross-over of survival and normalized lipid peroxidation curves (lipid peroxidation; dose curves): crossed over around the IC50 survival value | lipid peroxidation [3]: increased lipid peroxidation | relative survival of genotype under treatment or vehicle [4]: EML4-ALK as the most drug sensitive tumor type
